Measurements: ChEMBL document CHEMBL4507325 (2021)

Experiments:
[1] = molecular target: B1 bradykinin receptor (Homo sapiens) (UniProt P46663); details: Compound concentration 10.0 uM
[2] = molecular target: Alpha-1A adrenergic receptor (Homo sapiens) (UniProt P35348); details: Compound concentration 10.0 uM
[3] = molecular target: Endothelin receptor type B (Homo sapiens) (UniProt P24530); details: Compound concentration 10.0 uM
[4] = molecular target: 5-hydroxytryptamine receptor 3A (Homo sapiens) (UniProt P46098); details: Compound concentration 10.0 uM
[5] = molecular target: Type-2 angiotensin II receptor (Homo sapiens) (UniProt P50052); details: Compound concentration 10.0 uM
[6] = molecular target: Alpha-1A adrenergic receptor (Homo sapiens) (UniProt P35348); details: Rattus norvegicus; Compound concentration 10.0 uM
[7] = molecular target: T1, GABA-A receptor; anion channel (Rattus norvegicus) (UniProt O09028+P15431+P18506+P18508+P19969+P20236+P23574+P23576+P28471+P28473+P30191+P62813+P63079+P63138+Q91ZM7+Q9ES14); details: Compound concentration 10.0 uM
Rattus norvegicus = species: Rattus norvegicus; details: Compound concentration 10.0 uM
[8] = molecular target: Androgen receptor (Homo sapiens) (UniProt P10275); details: Compound concentration 10.0 uM
[9] = molecular target: Adenosine receptor A1 (Homo sapiens) (UniProt P30542); details: Compound concentration 10.0 uM
[10] = molecular target: D(4) dopamine receptor (Homo sapiens) (UniProt P21917); details: Compound concentration 10.0 uM
[11] = molecular target: Sodium-dependent dopamine transporter (Homo sapiens) (UniProt Q01959); details: Compound concentration 10.0 uM
[12] = molecular target: Muscarinic acetylcholine receptor M4 (Homo sapiens) (UniProt P08173); details: Compound concentration 10.0 uM
[13] = molecular target: Growth hormone secretagogue receptor type 1 (Homo sapiens) (UniProt Q92847); details: Compound concentration 10.0 uM
[14] = molecular target: Glutamate NMDA receptor (Rattus norvegicus) (UniProt P35439+Q00959+Q00960+Q00961+Q62645+Q8VHN2+Q9R1M7); details: Compound concentration 10.0 uM
[15] = molecular target: B2 bradykinin receptor (Homo sapiens) (UniProt P30411); details: Compound concentration 10.0 uM
[16] = molecular target: D(2) dopamine receptor (Homo sapiens) (UniProt P14416); details: Compound concentration 10.0 uM
[17] = molecular target: Adenosine receptor A3 (Homo sapiens) (UniProt P0DMS8); details: Compound concentration 10.0 uM
[18] = molecular target: Muscarinic acetylcholine receptor M3 (Homo sapiens) (UniProt P20309); details: Compound concentration 10.0 uM
[19] = molecular target: T1, GABA-A receptor; anion channel (Rattus norvegicus); details: Compound concentration 10.0 uM; remark: listed apart in the source
[20] = molecular target: Progesterone receptor (Homo sapiens) (UniProt P06401); details: Compound concentration 10.0 uM
[21] = molecular target: Beta-3 adrenergic receptor (Homo sapiens) (UniProt P13945); details: Compound concentration 10.0 uM
[22] = molecular target: Alpha-2C adrenergic receptor (Homo sapiens) (UniProt P18825); details: Compound concentration 10.0 uM
[23] = molecular target: Glutamate receptor ionotropic, kainate (Rattus norvegicus) (UniProt P22756+Q01812+P42260+P42264+Q63273); details: Compound concentration 10.0 uM
[24] = molecular target: Motilin receptor (Homo sapiens) (UniProt O43193); details: Compound concentration 10.0 uM
[25] = molecular target: Muscarinic acetylcholine receptor M2 (Homo sapiens) (UniProt P08172); details: Compound concentration 10.0 uM
[26] = molecular target: Purinergic P2Y (Rattus norvegicus) (UniProt O35811+Q9EPX4+P49651+Q63371+P41232+O35881+Q6GUG4); details: Compound concentration 10.0 uM
[27] = molecular target: D(2) dopamine receptor (Homo sapiens) (UniProt P14416); details: Compound concentration 10.0 uM; remark: listed apart in the source
[28] = molecular target: D(1A) dopamine receptor (Homo sapiens) (UniProt P21728); details: Compound concentration 10.0 uM
[29] = molecular target: Muscarinic acetylcholine receptor M1 (Homo sapiens) (UniProt P11229); details: Compound concentration 10.0 uM
[30] = molecular target: Insulin receptor (Homo sapiens) (UniProt P06213); details: Rattus norvegicus; Compound concentration 10.0 uM
[31] = molecular target: Aspartate aminotransferase, mitochondrial (Homo sapiens, UniProt P00505); experiment: Aspartate transaminase assay (GOT2)
[32] = molecular target: Cannabinoid receptor 2 (Homo sapiens) (UniProt P34972); details: Compound concentration 10.0 uM
[33] = molecular target: Kappa-type opioid receptor (Homo sapiens) (UniProt P41145); details: Compound concentration 10.0 uM
[34] = molecular target: Vasopressin V1a receptor (Homo sapiens) (UniProt P37288); details: Compound concentration 10.0 uM
[35] = molecular target: Alpha-1D adrenergic receptor (Homo sapiens) (UniProt P25100); details: Compound concentration 10.0 uM
[36] = molecular target: 5-hydroxytryptamine receptor 2A (Homo sapiens) (UniProt P28223); details: Compound concentration 10.0 uM
[37] = molecular target: 5-hydroxytryptamine receptor 7 (Homo sapiens) (UniProt P34969); details: Compound concentration 10.0 uM
[38] = molecular target: T1, GABA-A receptor; anion channel (Rattus norvegicus); details: Compound concentration 10.0 uM; remark: listed apart in the source
[39] = molecular target: Histamine H3 receptor (Homo sapiens) (UniProt Q9Y5N1); details: Compound concentration 10.0 uM
[40] = molecular target: Muscarinic acetylcholine receptor M5 (Homo sapiens) (UniProt P08912); details: Compound concentration 10.0 uM
[41] = molecular target: Sigma intracellular receptor 2 (Homo sapiens) (UniProt Q5BJF2); details: Compound concentration 10.0 uM
Sigma intracellular receptor 2 (Homo sapiens), sequence (Q5BJF2 whole entry): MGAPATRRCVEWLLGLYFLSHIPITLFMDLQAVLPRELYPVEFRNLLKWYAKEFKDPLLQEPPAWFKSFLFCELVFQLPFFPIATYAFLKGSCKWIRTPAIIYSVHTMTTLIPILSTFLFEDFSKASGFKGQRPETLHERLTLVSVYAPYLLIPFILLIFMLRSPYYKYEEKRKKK

Alpha-1A adrenergic receptor (Homo sapiens), sequence (P35348 whole entry): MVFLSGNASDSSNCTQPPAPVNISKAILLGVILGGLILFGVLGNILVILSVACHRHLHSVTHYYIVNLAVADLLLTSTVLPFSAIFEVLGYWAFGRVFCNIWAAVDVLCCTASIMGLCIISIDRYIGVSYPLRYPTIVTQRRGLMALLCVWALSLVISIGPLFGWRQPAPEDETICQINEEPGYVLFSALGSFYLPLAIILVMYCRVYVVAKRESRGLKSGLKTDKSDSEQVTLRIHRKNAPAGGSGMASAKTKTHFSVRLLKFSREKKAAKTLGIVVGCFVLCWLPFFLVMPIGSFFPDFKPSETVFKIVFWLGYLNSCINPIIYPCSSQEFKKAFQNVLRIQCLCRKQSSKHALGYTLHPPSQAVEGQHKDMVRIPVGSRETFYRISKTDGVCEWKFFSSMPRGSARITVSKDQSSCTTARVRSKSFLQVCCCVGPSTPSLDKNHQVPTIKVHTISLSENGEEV
D(2) dopamine receptor (Homo sapiens), sequence (P14416 whole entry): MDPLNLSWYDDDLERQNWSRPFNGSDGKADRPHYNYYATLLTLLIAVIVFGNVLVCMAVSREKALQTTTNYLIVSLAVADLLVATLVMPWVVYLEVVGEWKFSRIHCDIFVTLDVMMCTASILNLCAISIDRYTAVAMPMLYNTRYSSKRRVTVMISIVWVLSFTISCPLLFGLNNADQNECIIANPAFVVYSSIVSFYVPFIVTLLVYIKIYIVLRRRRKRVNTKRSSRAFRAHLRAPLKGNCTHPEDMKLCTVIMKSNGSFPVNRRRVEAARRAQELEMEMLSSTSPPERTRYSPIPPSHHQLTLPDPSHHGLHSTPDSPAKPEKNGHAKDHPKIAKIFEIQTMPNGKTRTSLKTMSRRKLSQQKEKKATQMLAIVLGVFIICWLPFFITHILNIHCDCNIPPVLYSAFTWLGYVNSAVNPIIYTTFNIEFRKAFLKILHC
5-hydroxytryptamine receptor 3A (Homo sapiens), sequence (P46098 whole entry): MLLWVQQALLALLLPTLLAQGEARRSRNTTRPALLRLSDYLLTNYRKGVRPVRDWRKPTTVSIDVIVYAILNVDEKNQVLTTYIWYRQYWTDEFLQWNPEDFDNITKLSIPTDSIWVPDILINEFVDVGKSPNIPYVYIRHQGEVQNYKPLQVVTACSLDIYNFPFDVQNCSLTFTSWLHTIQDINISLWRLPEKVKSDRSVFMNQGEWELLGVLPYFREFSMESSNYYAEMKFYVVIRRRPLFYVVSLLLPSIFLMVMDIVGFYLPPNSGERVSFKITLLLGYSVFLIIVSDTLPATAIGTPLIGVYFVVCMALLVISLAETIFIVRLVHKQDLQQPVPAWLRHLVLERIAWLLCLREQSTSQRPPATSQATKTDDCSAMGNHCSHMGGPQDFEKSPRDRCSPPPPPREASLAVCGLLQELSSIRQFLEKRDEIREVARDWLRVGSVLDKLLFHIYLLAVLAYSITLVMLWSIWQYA
Type-2 angiotensin II receptor (Homo sapiens), sequence (P50052 whole entry): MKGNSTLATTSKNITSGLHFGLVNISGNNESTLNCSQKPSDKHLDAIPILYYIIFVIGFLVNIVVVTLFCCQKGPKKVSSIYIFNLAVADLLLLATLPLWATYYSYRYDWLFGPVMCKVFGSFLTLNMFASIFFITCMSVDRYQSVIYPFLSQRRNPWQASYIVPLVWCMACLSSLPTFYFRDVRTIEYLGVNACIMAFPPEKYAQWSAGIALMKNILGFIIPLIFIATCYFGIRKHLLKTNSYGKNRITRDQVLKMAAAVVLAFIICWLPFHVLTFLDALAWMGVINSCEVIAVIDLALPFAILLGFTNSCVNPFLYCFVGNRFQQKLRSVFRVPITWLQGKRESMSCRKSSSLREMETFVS
Adenosine receptor A3 (Homo sapiens), sequence (P0DMS8 whole entry): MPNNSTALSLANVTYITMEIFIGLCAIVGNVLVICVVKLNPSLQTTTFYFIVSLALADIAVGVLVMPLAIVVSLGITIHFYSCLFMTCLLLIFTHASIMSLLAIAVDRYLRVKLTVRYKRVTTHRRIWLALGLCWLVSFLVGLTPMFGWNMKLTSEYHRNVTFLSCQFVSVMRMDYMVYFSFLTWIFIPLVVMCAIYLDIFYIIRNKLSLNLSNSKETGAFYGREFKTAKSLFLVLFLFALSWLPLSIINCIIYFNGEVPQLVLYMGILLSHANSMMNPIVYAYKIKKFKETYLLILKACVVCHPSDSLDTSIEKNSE
Muscarinic acetylcholine receptor M1 (Homo sapiens), sequence (P11229 whole entry): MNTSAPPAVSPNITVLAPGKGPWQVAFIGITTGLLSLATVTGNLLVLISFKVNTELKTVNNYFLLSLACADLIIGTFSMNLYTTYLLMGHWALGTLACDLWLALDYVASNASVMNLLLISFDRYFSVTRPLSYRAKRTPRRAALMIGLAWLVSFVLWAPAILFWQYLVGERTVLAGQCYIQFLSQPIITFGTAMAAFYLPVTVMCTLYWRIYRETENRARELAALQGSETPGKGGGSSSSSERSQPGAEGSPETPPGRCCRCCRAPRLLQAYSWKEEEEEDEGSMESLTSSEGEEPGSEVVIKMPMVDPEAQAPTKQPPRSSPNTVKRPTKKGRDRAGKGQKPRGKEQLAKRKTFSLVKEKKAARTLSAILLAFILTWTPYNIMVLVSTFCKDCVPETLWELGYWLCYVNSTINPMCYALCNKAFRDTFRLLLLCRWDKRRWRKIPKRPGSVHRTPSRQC
Motilin receptor (Homo sapiens), sequence (O43193 whole entry): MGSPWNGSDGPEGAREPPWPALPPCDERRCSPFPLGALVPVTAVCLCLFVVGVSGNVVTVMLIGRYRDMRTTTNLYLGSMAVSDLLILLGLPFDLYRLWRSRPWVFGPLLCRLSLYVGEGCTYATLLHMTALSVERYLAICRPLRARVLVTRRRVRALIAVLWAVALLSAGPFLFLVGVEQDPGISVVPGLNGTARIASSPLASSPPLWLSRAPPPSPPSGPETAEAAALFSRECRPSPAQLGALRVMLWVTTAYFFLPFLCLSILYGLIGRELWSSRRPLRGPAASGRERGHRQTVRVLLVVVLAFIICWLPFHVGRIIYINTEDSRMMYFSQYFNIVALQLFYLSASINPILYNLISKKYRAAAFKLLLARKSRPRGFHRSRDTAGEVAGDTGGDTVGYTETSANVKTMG
Cannabinoid receptor 2 (Homo sapiens), sequence (P34972 whole entry): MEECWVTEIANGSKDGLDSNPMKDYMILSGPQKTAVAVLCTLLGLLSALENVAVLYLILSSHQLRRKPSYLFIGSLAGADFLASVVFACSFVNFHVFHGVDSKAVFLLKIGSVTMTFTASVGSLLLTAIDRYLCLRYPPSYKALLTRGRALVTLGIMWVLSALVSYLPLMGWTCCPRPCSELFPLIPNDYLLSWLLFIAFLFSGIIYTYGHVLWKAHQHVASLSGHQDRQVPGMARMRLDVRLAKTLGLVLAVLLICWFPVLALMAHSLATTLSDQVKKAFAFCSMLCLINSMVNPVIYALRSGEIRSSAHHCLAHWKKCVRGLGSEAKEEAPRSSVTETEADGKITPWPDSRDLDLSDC
Muscarinic acetylcholine receptor M3 (Homo sapiens), sequence (P20309 whole entry, looked up): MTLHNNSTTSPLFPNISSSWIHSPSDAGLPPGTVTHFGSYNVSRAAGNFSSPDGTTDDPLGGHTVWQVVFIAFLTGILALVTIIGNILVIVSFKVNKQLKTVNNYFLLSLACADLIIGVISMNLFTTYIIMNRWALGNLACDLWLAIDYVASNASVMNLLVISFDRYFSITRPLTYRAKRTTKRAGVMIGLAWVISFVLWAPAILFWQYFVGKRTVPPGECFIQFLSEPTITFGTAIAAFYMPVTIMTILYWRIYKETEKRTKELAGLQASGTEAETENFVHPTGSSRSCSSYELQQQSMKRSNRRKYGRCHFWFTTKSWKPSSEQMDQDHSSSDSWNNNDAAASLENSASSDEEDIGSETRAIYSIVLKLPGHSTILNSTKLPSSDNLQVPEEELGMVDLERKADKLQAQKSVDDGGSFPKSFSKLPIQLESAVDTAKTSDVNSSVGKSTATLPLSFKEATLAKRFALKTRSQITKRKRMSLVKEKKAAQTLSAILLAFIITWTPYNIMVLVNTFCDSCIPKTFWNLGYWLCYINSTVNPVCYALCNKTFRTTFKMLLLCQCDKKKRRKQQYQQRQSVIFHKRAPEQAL
Kappa-type opioid receptor (Homo sapiens), sequence (P41145 whole entry): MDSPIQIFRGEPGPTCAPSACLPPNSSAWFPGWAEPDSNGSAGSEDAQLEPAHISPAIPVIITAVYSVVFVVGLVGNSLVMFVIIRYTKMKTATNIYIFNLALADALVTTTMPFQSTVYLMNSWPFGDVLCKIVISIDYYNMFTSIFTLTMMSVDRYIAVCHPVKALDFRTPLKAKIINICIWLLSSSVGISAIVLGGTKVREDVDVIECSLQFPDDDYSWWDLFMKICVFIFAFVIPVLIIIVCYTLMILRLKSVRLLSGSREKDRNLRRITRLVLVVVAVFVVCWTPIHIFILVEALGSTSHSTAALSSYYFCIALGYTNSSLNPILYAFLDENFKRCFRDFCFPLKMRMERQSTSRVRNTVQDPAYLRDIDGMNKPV
Aspartate aminotransferase, mitochondrial, sequence (P00505 whole entry): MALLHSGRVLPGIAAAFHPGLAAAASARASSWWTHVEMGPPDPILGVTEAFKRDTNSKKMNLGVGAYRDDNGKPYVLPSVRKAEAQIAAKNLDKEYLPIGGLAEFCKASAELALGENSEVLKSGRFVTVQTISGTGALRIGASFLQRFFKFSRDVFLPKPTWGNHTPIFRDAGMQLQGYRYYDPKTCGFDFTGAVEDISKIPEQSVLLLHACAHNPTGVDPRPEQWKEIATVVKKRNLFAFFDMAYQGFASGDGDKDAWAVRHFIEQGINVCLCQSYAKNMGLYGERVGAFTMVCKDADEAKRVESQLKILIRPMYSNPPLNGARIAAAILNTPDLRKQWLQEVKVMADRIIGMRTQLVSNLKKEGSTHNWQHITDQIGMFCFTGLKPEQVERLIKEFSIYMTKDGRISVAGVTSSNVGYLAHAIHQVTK

## Cc1ccccc1Oc1cc(-n2c(=O)cc(C(F)(F)F)[nH]c2=O)c2ccccc2c1Cl [BAY-069]
[1]
  inhibition: -8%
[2]
  inhibition: -2.81%
[3]
  inhibition: -9%
[4]
  inhibition: 20.3%
[5]
  inhibition: 6%
[6]
  inhibition: 5%
[7]
  inhibition: 4%
Rattus norvegicus
  inhibition: 46%
[8]
  inhibition: 9%
[9]
  inhibition: 27%
[10]
  inhibition: 9.05%
[11]
  inhibition: 33%
[12]
  inhibition: -8.67%
[13]
  inhibition: 1%
[14]
  inhibition: -2%
[15]
  inhibition: 1%
[16]
  inhibition: -5%
[17]
  inhibition: -2%
[18]
  inhibition: -7%
[19]
  inhibition: 11.3%
[20]
  inhibition: -4%
[21]
  inhibition: 15%
[22]
  inhibition: 10.8%
[23]
  inhibition: -4%
[24]
  inhibition: 4%
[25]
  inhibition: 39.2%
[26]
  inhibition: -4%
[27]
  inhibition: -5%
[28]
  inhibition: -0.83%
[29]
  inhibition: 8%
[30]
  inhibition: 15%
[31]
  IC50: > 50 µM (not active)
[32]
  inhibition: -5%
[33]
  inhibition: -7%
[34]
  inhibition: 7%
[35]
  inhibition: -5.48%
[36]
  inhibition: 1%
[37]
  inhibition: 13.1%
[38]
  inhibition: 15%
[39]
  inhibition: 3%
[40]
  inhibition: -5.66%
[41]
  inhibition: -7.5%
